In patent publication US20210293825A1, “METHODS FOR PRECISION THERAPEUTIC TARGETING OF HUMAN CANCER CELL MOTILITY AND KITS THEREOF” (UNITED STATES GOVERNMENT AS REPRESENTED BY THE DEPARTMENT …, priority 2018, published 2021):

Assays:
[1] = Pharmacokinetics after oral gavage or intravenous injection; format: in vivo, CD1 mice; details: after a single oral dose
Method: Cohorts of N=12 athymic mice bearing human PCa PC3-M cell orthotopic implants (a), or of N=5 non-tumor bearing athymic mice (b), were treated with KBU2046 incorporated into chow, and resultant lung metastasis (a) or plasma KBU2046 concentration (b) measured. Values are the mean±SEM. The relationship between dose and metastasis was evaluated by two-sided ANOVA (a). FIG. 2c a comprehensive characterization of KBU2046 pharmacokinetics. CD1 mice were dosed with 100 mg KBU2046/kg via oral gavage or intravenous injection (iv), and blood collected at the indicated time points (data from mice dosed at 25 mg/kg are in FIG. 12, and corroborate 100 mg/kg findings). For each route and time point, N=3 mice were sampled. Individual data points are the resultant plasma concentrations from individual mice, and are the mean of N=2 measurements. The dotted horizontal line denotes a concentration of 24 nM, which was the concentration of KBU2046 measured in the blood of mice whose metastasis were suppressed by 92% (a-b). […]
KBU2046 Quantification and Pharmacokinetics. […]
Plasma KBU2046 concentrations were measured in duplicate by liquid chromatography-tandem mass spectrometry after sample preparation by solid-phase extraction. […] The mass-to-charge ratios of the precursor-to-product ion reactions monitored were 243.5→125.1 for KBU2046 and 257.0→165.0 for the internal standard. […]

[2] = test system: human prostate cells (PC3, PC3-M, 1532NPTX, 1542NPTX, 1532CPTX, 1542CPTX); test: Boyden chamber cell invasion assay, human prostate cells; format: cell-based; details: 10 μM, 3 days; normal, primary and metastatic PCa cells
Text: (§1) FIG. 1a is a schematic flow of probe synthesis and development strategy. […] Values are mean±SEM of a single experiment in replicates of N=4, with similar findings in multiple separate experiments (also N=4). […] Values are mean±SEM of a single experiment in replicates of N=24, with similar findings in a separate experiment (also N=24). *Denotes Student's t test P value <0.05, compared to controls. […] Values are mean±SEM from N>2 separate experiments, each in replicates of N=3. […] Values are the mean±SD number of total, CFU-GM, CFU-GEMM or BFU-E colonies at 14 days after treatment with KBU2046, from a single experiment in replicates of N=2. […] Values are the mean±SD of a single experiment, with similar results seen in a separate experiment, both in replicates of N=2.
Cell Invasion Assays. Boyden chamber cell invasion assays were performed as previously described^9, using either denatured collagen (BD Biosciences) or type IV human collagen (BD Biosciences), with the experiments repeated, each in N=4 replicates. In some experiments, as indicated, cells were transfected with an expression plasmid, using Lipofectamine 2000™ (Invitrogen), or with siRNA, using DharmaFect Duo (Thermo Scientific) and co-transfected with β-Galactosidase (Plasmid pCMV⋅SPORT-βgal; Life Technology).

[3] = test system: human prostate, breast, colon and lung cancer cells; test: Single cell migration (motility) assay; format: cell-based; details: 10 μM, 3 days
Text: as §1
Cell Migration Assays. Single cell motility assays were conducted by adding 10^4 cells to 35 mm tissue culture dishes (BD Falcon) coated with collagen I (BD Biosciences), incubating at 37° C. in 5% CO2, performing time-lapse imaging using a Biostation (Nikon Instruments), tracking the path of N≥35 cells using ImageJ software and the Manual Tracker plug-in, and using Chemotaxis and Migration Tool plug-in for data analysis.

O=C1c2ccccc2OCC1c1ccc(F)cc1 (racemic) [KBU2046, (±)-3(4-fluorophenyl)chroman-4-one]
maintenance of plasma concentrations >24 nM [1]: 9.3 h | inhibition of cell invasion [2]: inhibits cell invasion with efficacy equal-to-or-greater-than that of genistein | inhibition of cell migration [3]: inhibited the migration
